The values below come from US20170129916A1, “NOVEL BETULINIC PROLINE IMIDAZOLE DERIVATIVES AS HIV INHIBITORS” (HETERO RESEARCH FOUNDATION, priority 2014, published 2017).

Series [1] concerns HIV-1 strains, for e.g., 92HT599. The series is described as follows: Antiviral activity: p24 estimation in MT-2 cells infected with HIV-1. Type of series: cell-based. Conditions: Human immunodeficiency virus 1, MT2, MT-2 cells infected with HIV-1, p24, ~96 hours. In short, it runs like this: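 MT-2 cells infected with HIV-1 (e.g. 92HT599), plated at 30,000 cells/well with compound (DMSO ≤1%) and incubated ~96 h. Supernatant p24 quantified by kit; percent inhibition relative to vehicle controls.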

Series [2] is described as follows: in vitro.
Protocol: On day 1 calculate the number of cells required for the assay and seed 3×10^4 cells in 200 μl per well. Weigh the compound and dissolve it in DMSO to get 10 mM stock which is further diluted to 3 mM and 1 mM. The drugs from these stocks were added to plate to get final concentration of 100 μM, 30 μM and 10 μM. […] Incubate for 4 days in 5% CO2 incubator at 37° C. On day 4, 100 μl of medium was removed from each well without disturbing the cells. Add 10 μl of MTT reagent and incubate for 4 hours at 5% CO2 incubator at 37° C. for formation of crystals. Add 200 μl of 0.1N acidic isopropanol to dissolve the crystals and read the plate at 590 nm.

Turning to `COCCO[C@@H]1C[C@@H](c2nc(-c3cccc(F)c3)c[nH]2)N(C(=O)[C@]23CC[C@@H](C4(C)CC4)[C@@H]2[C@H]2CC[C@@H]4[C@@]5(C)CC[C@H](OC(=O)[C@H]6C[C@@H](C(=O)O)C6(C)C)C(C)(C)[C@@H]5CC[C@@]4(C)[C@]2(C)CC3)C1` [Compound 54, (1R,3S)-3-((((1R,3aS,5aR,5bR,7aR,9S,11aR,11bR,13aR,13bR)-3a-((2S,4R)-2-(4-(3-fluorophenyl)-1H-imidazol-2-yl)-4-(2-methoxyethoxy)pyrrolidine-1-carbonyl)-5a,5b,8,8,11a-pentamethyl-1-(1-methylcyclopropyl)icosahydro-1H-cyclopenta[a]chrysen-9-yl)oxy)carbonyl)-2,2-dimethylcyclobutane-1-carboxylic acid], in series [1] (0.1 μM), the inhibition (as a rule, the relative decrease from the control value, in per cent) at 0.1 µM was 13%. The inhibition at 1 µM in series [1] (1 μM) is 93%. In series [2], the viability (in general, a read-out of living cells in per cent, often relative to untreated cells) at 4 days, 10 μM came to 49%; the viability at 4 days, 30 μM was found to be 16%; the viability at 4 days, 100 μM came to 6%.
